Tests used:
[1] = target: T1, human FSH receptor (hFSHR) (Homo sapiens, UniProt P23945); test: HTRF cAMP inhibition; assay type: cell-based
T1 sequence (P23945 18-695): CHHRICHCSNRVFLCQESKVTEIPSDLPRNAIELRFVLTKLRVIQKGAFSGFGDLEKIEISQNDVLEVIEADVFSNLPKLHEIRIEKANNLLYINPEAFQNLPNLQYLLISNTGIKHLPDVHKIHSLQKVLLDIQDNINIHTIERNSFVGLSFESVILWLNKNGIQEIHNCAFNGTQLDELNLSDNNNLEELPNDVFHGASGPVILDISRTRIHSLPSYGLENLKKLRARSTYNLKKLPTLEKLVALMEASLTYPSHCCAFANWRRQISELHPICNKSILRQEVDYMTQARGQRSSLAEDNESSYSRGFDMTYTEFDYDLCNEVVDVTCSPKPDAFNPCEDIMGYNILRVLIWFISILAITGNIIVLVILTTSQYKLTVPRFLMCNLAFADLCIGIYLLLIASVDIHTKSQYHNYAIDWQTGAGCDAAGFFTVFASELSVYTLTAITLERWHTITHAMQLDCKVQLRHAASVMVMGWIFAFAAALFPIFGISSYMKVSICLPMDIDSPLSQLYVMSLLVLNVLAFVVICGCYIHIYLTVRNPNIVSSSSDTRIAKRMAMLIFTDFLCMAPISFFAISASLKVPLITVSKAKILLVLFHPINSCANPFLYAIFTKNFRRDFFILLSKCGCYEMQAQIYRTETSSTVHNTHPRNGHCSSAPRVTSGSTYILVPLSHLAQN

[2] = target: hLH receptor (Homo sapiens, UniProt P22888); test: inhibition of LH EC80 response at hLH receptor; assay type: cell-based
hLH receptor, sequence (P22888 27-699): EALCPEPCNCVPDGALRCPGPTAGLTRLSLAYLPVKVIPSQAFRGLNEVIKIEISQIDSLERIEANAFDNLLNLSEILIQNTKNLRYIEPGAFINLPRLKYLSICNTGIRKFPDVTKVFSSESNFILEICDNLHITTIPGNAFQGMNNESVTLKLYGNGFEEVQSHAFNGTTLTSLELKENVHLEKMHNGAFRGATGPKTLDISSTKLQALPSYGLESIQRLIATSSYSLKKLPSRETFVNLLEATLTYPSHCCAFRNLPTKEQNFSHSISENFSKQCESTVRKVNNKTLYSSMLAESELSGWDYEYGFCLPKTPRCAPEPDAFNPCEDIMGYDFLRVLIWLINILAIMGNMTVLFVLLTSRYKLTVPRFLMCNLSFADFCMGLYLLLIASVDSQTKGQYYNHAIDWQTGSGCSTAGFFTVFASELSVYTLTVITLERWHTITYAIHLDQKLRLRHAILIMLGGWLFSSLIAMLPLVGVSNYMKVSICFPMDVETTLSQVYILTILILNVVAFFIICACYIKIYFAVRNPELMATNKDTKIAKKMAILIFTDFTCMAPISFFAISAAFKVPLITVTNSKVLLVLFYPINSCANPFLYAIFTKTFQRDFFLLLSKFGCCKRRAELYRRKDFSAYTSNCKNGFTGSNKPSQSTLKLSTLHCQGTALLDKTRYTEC

Compound `COc1ccc(C(=O)Nc2ccc(C(C)(C)C#N)cc2)cc1OC` [ADX61623] has an IC50 [1] of 700 ± 200 nM and an IC50 [2] of 3400 ± 800 nM.

Source: PMC4491433 (Molecular and cellular endocrinology, 2010)
